Results from patent publication US10081662B2, “Modified relaxin B chain peptides” (The Florey Institute of Neuroscience and Mental Health, priority 2014, dated 2018).
Peptide text beside a SMILES is read from it.

What was measured:
[1] = biological target: T1, fusion protein comprising the extracellular domain of RXFP1 and the transmembrane domain of CD8 (7BP cells) (Homo sapiens, UniProt Q9HBX9); assay: Eu-labelled H2 relaxin competition binding to 7BP cells; conditions: 7BP cells
T1 construct: the extracellular domain of RXFP1 and the transmembrane domain of CD8; expressed in transfected cells
T1 sequence (Q9HBX9 1-409 limits assumed): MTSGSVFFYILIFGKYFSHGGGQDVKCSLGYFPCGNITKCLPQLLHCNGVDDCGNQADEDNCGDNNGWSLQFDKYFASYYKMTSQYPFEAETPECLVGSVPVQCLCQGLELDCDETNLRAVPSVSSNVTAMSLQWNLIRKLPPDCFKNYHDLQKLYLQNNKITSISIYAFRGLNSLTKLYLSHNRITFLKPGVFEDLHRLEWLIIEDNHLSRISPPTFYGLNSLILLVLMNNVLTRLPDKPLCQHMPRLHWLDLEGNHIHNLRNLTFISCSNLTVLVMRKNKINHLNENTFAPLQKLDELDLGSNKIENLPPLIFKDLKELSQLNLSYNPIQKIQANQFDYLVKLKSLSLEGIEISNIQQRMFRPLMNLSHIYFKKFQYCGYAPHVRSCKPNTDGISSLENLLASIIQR

[2] = test system: mouse model of isoproterenol (ISO) induced cardiac fibrosis; assay: Mouse model of isoproterenol-induced cardiomyopathy (cardiac fibrosis); format: in vivo; conditions: 129SV mice, 14 days, s.c. minipump; relative to isoproterenol treatment
From the text: (§1) Seven to eight-week old male 129SV mice (which are sensitive to tissue injury and fibrosis) and age-matched female Balb/c mice (which are sensitive to changes in airway hyperresponsiveness) were used for the induction of isoproterenol-induced cardiomyopathy and ovalbumin-induced chronic allergic airways disease, respectively. 16 five week-old male C57BL/6 mice were used in the induction of prostate cancer growth. All animals were obtained from Monash Animal Services (Monash University, Clayton, Victoria, Australia) and housed under standard conditions (maintained on an 12 h light-12 h dark lighting cycle with free access to food and water) in the Department of Pharmacology Animal Room at Monash University.
The mid zone of the male mouse heart and largest lung lobe from female Balb/c mice were fixed in 10% neutral buffered formalin for 24-48 h before being processed and embedded routinely in paraffin wax. Representative sections of tissue, 3-5 um each, were taken and stained with either picrosirius red (Samuel et al. 2011 Lab Invest 91, 675-690) for the detection of interstitial collagen or Masson's trichrome (Royce et al, 2009, Endocrinology 150, 2692-2699) for the detection of subepithelial basement membrane collagen deposition).
Changes in picrosirius-red stained interstitial collagen or epithelial thickness and subepithelial collagen (fibrosis) around the airway lumen from Masson's trichrome-stained sections; which were all captured (at ×20 magnification) using a SPOT digital camera (Q Imaging, Burnaby, BC, Canada) and analysed with Image J 1.3 software (National Institutes of Health, Bethesda, Md.). Four to five fields per mid zone of the heart or 4-5 airways (of 150-350 μm in diameter) per mouse were assessed. Epithelial thickness and subepithelial collagen regions were traced with a digital pen and the thickness of each region calculated by the imaging software. Results were expressed as mean thickness ([…]) of the 4-5 airways sampled.
The apical region of the heart or second largest lung lobe from each mouse was treated as described previously (Samuel C S, et at., 2003, FASEB J 17, 121-123; Royce et at. 2009, Endocrinology 150, 2692-2699) for the determination of hydroxyproline content. Hydroxyproline values were estimated based on a standard curve constructed with serial dilutions of a 0.1 mg/mL stock of trans-4-hydroxyproline-L-proline (Sigma-Aldrich). Hydroxyproline values were then converted to collagen content as detailed previously (Samuel CS, et al. 2004. Endocrinology 145, 4125-4133) and, in turn, divided by the dry weight of each corresponding left ventricular or lung tissue assessed to yield collagen concentration (a measure of fibrosis). […]

[3] = test system: RM1 mouse prostate tumour cells; assay: Prostate tumour growth after injection of RM1 cells into prostates of C57BL/6 mice; format: in vivo; conditions: day 10 after RM1 cells, s.c. mini-pump from day 2, H2 relaxin 0.15, B7-33 C11.23S 0.075 mg/kg/day, vs untreated
From the text: as §1
H2 relaxin can induce prostate and other tumour growth. To measure the effect of B7-33 C11.23S on tumour growth, 16 five week-old male C57BL/6 mice (obtained from Monash Animal Services) were injected with 5000 RM1 (mouse prostate tumor) cells into their prostates to induce tumor growth. One sub-group of mice n=5) was left untreated until day 10 post-RM1 cell administration. […]

## CC[C@H](C)[C@H](NC(=O)[C@H](C)NC(=O)[C@@H](NC(=O)[C@H](CCC(N)=O)NC(=O)[C@H](C)NC(=O)[C@H](CCCNC(=N)N)NC(=O)[C@@H](NC(=O)[C@H](CC(C)C)NC(=O)[C@H](CCC(=O)O)NC(=O)[C@H](CCCNC(=N)N)NC(=O)CNC(=O)[C@H](CO)NC(=O)[C@H](CC(C)C)NC(=O)[C@H](CCCCN)NC(=O)[C@@H](NC(=O)[C@@H](N)C(C)C)[C@@H](C)CC)C(C)C)[C@@H](C)CC)C(=O)N[C@@H](CO)C(=O)NCC(=O)N[C@@H](CCSC)C(=O)N[C@@H](CO)C(=O)N[C@H](C(=O)N[C@@H](Cc1c[nH]c2ccccc12)C(=O)N[C@@H](CO)C(=O)N[C@@H](CCCCN)C(=O)N[C@@H](CCCNC(=N)N)C(=O)N[C@@H](CO)C(=O)N[C@@H](CC(C)C)C(N)=O)[C@@H](C)O [B7-33 C11.23S] (H-VIKLSGRELVRAQIAISGMSTWSKRSL-NH2)
[1]; competition with Eu-labelled H2 relaxin, n ≥ 3, read-out: 7BP Eu-H2 pKi (converted)
  Ki: 22.4 nM
[1]; lower affinity than H2 relaxin, FIG. 2B
  Binding to 7BP cells (in words): strongly bind to 7BP cells
[2]
  Percentage of interstitial collagen in the left ventricle (picrosirius red): significantly reduced
  Total left ventricular collagen concentration (hydroxyproline analysis): significantly reduced
[3]
  Prostate tumour size: did not result in changes in tumour size relative to untreated
